Results as given in patent US20220220100A1 (SOLUTIA CANADA INC., priority 2019, published 2022).

Columns and labels:
Format in all cases: physicochemical
[1] = Solubility in Rhodiasolv IRIS solvent; details: Rhodiasolv IRIS (dimethyl-2-methyl glutarate); wt %
From the text: A compound with greater solubility allows for a formulation or material with a greater concentration of coloured molecule to be incorporated into a composition. This may allow for increasing the contrast ratio for a compound with a lesser absorbance at PSS. Examples of solubilizing groups for the compound include alkoxy, ether, ester or siloxy groups. In various embodiments, compounds may be soluble in the solvent component at room temperature at about 6 wt %, 7 wt %, 8 wt %, 9 wt %, 10 wt % or greater for testing to determine whether a compound has application as an exterior glazing or optical filter. If the solubility of a compound in the solvent component is too low, then insufficient darkening may be achieved in the ring-closed configuration, depending on conditions of use for the compound.
(§1) Chromophore solutions in Rhodiasolv IRIS were prepared at 1 to 10 wt % loading. Solutions were prepared in a glovebox by charging the chromophore and Rhodiasolv IRIS to a trace-clean vial, and the solution was stirred on a hotplate at 90° C. for 2-24 hours. After cooling, the chromophore solution was injected into glass weathering cells and the fill and vent ports were sealed with a thin disc of Kalrez (FFKM Perfluorinated Elastomer) and secured with a clamp and set-screw. The weathering cells were filled and sealed inside the glove box.

[2] = Photostability: xenon arc weathering of chromophore solutions, LCMS analysis; details: for Ketone (%) / Minus-2HF (%) / Minus-HF (%) / Sulfone (%) / Chromophore Remaining (%): xenon arc, 82° C. bp; for Ketone (%) / Minus-2HF (%) / Minus-HF (%) / Sulfone (%): linearly interpolated to 0.5 MJ/m2 @ 340 nm; for Chromophore Remaining (%): linearly interpolated to 0.5 MJ/m2 @ 340 nm of exposure energy; for Photostability (in words): weathering experiments
From the text: Photostability (resistance to light-induced degradation) may be measured by the amount of time required for the compound, or a material comprising the compound, to degrade to a certain point under light exposure. The light exposure may be constant, or cyclic. The light transmittance or absorbance of the compound, or material comprising the compound, may be determined at both a light state and dark state prior to testing, to determine a contrast ratio. During testing, the contrast ratio may be monitored (periodically or continually), the compound or material may be determined to have failed when the contrast ratio falls outside, or below, a selected range, or when the contrast ratio decreases to a percentage of the original contrast ratio. Photostability may also be expressed with reference to a light source or with reference to a type of light.
as §1
Measurement of Photostability
A. Fabrication of cuvettes. Two holes of 0.8 mm diameter were drilled at opposite ends in a 75×50 mm piece of float glass using a diamond drill bit in a rotary tool. The drilled glass and a matching piece of undrilled glass were then cleaned using hot soapy water, rinsed with deionized water and acetone and then dried with compressed air. A 5 mm wide frame was cut from a sheet of 50 μm thickness EVAL EF-F using a laser engraver. The EVAL frame was placed around the perimeter of one sheet of glass and sandwiched by the second sheet of glass. The glass-EVAL-glass sandwich was secured with tape and heated under vacuum (10 mmHg) for 30 minutes at 170° C. in a vacuum bag. After cooling, a third piece of float glass was PVB laminated to the non-drilled side of the sealed glass cells using Trosifol UV Extra Protect B150 PVB (400 nm UV cut-off).
B. Xenon arc weathering protocol. Devices were exposed to simulated weathering conditions inside a Xe-3-HS xenon arc chamber, manufactured by Q-labs Inc. The samples were weathered according to the following table. The devices were exposed to these conditions continuously, with no dark or spray cycles included.
C. Analysis of weathered chromophore solutions by LCMS. The set-screws, metal clamps and Kalrez plugs were removed from the cuvette to expose the fill port. A 5 mL plastic syringe (NORM-JECT®) equipped with a tip (Precision Tips, 0.010″ RED) was inserted into one fill port and the chromophore solution was withdrawn from the cuvette. The chromophore solution was then injected into a 2 mL amber vial (part number 5182-0716, Agilent Technology) prefilled with 1.5 mL LC-MS grade acetonitrile (HiPerSolbe CHROMANORM Acetonitrile, VWR BDH Chemicals). An aliquot of the acetonitrile solution (2 μL) was injected into the LC-MS system (Agilent Infinity 1290 LC-MS system with diode array detector) through an autosampler mechanism. Species in the injected sample were separated through a reverse phase column (Zorbax SB-C18, 2.1×50 mm, 1.8 μm, operated at 40° C.), using a mixture of acetonitrile (mixed with 1% formic acid v/v ratio), methanol (HiPerSolbe CHROMANORM Methanol, VWR BDH Chemicals) and water (HiPerSolbe CHROMANORM Water, VWR BDH Chemicals) as mobile phase.

[3] = Oxidation potential of ring-closed and ring-open isomers; details: no unit printed in table (V relative to Ag/AgCl)
From the text: In various embodiments, at a PSS, some of the chromophore will be in the ring-closed isomer, with a small, but non-zero portion of ring-open isomer. The oxidation potential of a ring-open isomer may be more anodic than the oxidation potential of a ring-closed isomer. Exposure to a potential that is too far beyond what is necessary to oxidize the ring-closed isomer may result in oxidation of the ring-open isomer, which may be irreversible and result in electrochemically-induced degradation of the chromophore.
Thus, in various embodiments, an anodic chromophore may have an oxidation potential of from about 0.4 V to 1.2 V for the ring-closed isomer and about 1.0 V to 2.5 V for the ring-open isomer relative to an Ag/AgCl reference electrode. In various embodiments, the oxidation potential for the ring-open isomer is about 250 mV more anodic than the oxidation potential for the ring-closed isomer. For example, the oxidation potential may be about 260 mV, about 280 mV, about 300 mV, about 320 mV, about 340 mV, about 360 mV, about 380 mV, about 400 mV, about 420 mV, about 440 mV, or about 460 mV more anodic than the oxidation potential for the ring-closed isomer.

[4] = 1 wt %, interpolated to 0.5 MJ/m^2 of energy exposure at 340 nm
[5] = 10 wt %, interpolated to 0.5 MJ/m^2 of energy exposure at 340 nm

Compound	Solubility in Rhodiasolv IRIS [1]	Photostability (in words) [2]	RC [O] (oxidation potential of ring-closed isomer) [3]	RO [O] (oxidation potential of ring-open isomer) [3]	Ketone (%) ([2]; 10 wt % in Rhodiasolv IRIS)	Minus-2HF (%) ([2]; 10 wt % in Rhodiasolv IRIS)	Minus-HF (%) ([2]; 10 wt % in Rhodiasolv IRIS)	Sulfone (%) ([2]; 10 wt % in Rhodiasolv IRIS)	Chromophore Remaining (%) ([2]; 10 wt % in Rhodiasolv IRIS)	Ratio of chromophore remaining relative to S340 [2, 5]	other results
COc1ccc2c(C3=C(c4cc(-c5ccc(C(C)(C)C)s5)sc4-c4ccc(C(C)(C)C)s4)C(F)(F)C(F)(F)C3(F)F)c(-c3ccc(C(C)(C)C)cc3)oc2c1	<3%	more rapid degradation compared to S340	1	1.38							Ketone (%) ([2]; 3 wt % in Rhodiasolv IRIS): 0.0%; Minus-2HF (%) ([2]; 3 wt % in Rhodiasolv IRIS): 1.9%; Minus-HF (%) ([2]; 3 wt % in Rhodiasolv IRIS): 6.9%; Sulfone (%) ([2]; 3 wt % in Rhodiasolv IRIS): 0.0%; Chromophore Remaining (%) ([2]; 3 wt % in Rhodiasolv IRIS): 86.9%; Ratio of chromophore remaining relative to S340 ([2]; 3 wt %, interpolated to 0.5 MJ/m^2 of energy exposure at 340 nm): 0.95
COc1cc2oc(-c3ccc(C(C)(C)C)cc3)c(C3=C(c4cc(-c5cc6c(s5)C(C)(C)CCC6(C)C)sc4-c4cc5c(s4)C(C)(C)CCC5(C)C)C(F)(F)C(F)(F)C3(F)F)c2cc1OC	<3%	high photostability	0.91	1.29							Ketone (%) ([2]; 1 wt % in Rhodiasolv IRIS): 3.3%; Minus-2HF (%) ([2]; 1 wt % in Rhodiasolv IRIS): 0.0%; Minus-HF (%) ([2]; 1 wt % in Rhodiasolv IRIS): 1.3%; Sulfone (%) ([2]; 1 wt % in Rhodiasolv IRIS): 3.1%; Chromophore Remaining (%) ([2]; 1 wt % in Rhodiasolv IRIS): 92.3%; Ratio of chromophore remaining relative to S340 [2, 4]: 1.01; Sum of degradation product percentages relative to the sum of degradation product percentages for S340 [2, 4]: 0.87
COCCCOc1cc2oc(-c3ccc(C(C)(C)C)cc3)c(C3=C(c4cc(-c5cc(C(C)(C)C)cs5)sc4-c4cc(C(C)(C)C)cs4)C(F)(F)C(F)(F)C3(F)F)c2cc1OCCCOC	>10%	high photostability	0.95	1.39	0.0%	0.0%	0.0%	0.1%	98.6%	1.08	Formation of the Minus-HF degradation product (in words) [2]: prevents the Minus-HF product
CC(C)(C)c1ccc(-c2oc3cc(OCCN4C(=O)CCC4=O)c(OCCN4C(=O)CCC4=O)cc3c2C2=C(c3cc(-c4cc(C(C)(C)C)cs4)sc3-c3cc(C(C)(C)C)cs3)C(F)(F)C(F)(F)C2(F)F)cc1	>10%	high photostability	1.05	1.42	0.0%	0.0%	0.0%	0.0%	95.3%	1.05	
